Tests used:
human TLR7 = molecular target: T1, human TLR7 (Homo sapiens, UniProt Q9NYK1); test: HEK293-Blue hTLR7 Reporter Assay (QUANTI-BLUE, SEAP readout); assay type: cell-based; settings: HEK-Blue-hTLR7 cells, 24 hrs treatment, Table 1, B1-B232
T1 construct: host or cells: HEK293 (HEK-Blue hTLR7)
T1 sequence (Q9NYK1 27-1049): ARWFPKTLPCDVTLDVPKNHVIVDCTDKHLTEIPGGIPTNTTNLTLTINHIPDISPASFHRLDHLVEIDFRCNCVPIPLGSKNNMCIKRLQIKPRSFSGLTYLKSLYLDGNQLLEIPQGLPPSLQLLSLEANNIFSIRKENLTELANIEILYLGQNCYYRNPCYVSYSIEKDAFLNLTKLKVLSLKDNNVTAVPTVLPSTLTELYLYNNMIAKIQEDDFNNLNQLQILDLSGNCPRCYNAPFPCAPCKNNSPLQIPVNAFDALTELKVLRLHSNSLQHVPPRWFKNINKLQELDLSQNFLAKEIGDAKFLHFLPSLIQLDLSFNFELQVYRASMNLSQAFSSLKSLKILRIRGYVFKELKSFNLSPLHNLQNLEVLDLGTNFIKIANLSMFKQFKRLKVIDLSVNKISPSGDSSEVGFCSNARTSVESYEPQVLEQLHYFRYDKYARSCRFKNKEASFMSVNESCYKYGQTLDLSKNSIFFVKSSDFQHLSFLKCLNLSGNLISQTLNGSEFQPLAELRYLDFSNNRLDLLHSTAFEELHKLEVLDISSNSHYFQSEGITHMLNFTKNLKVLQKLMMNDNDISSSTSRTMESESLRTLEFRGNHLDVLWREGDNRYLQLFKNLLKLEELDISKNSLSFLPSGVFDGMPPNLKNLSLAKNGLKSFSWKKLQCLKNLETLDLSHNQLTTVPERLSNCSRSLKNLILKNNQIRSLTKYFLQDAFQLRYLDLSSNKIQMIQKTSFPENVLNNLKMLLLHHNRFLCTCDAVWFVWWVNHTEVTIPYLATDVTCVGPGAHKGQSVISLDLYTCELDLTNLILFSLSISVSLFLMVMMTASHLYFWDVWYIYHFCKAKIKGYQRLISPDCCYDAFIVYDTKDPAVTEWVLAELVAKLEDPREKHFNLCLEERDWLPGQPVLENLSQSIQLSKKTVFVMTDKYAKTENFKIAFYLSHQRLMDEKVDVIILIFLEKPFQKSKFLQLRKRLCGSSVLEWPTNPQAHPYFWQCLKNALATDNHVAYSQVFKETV
In short: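 HEK-Blue-hTLR7 cells expressing NF-κB/AP-1-driven SEAP, 4×10^4 cells/well, treated 24 h at 37° C with increasing compound concentrations. Supernatant SEAP measured with Quanti-blue substrate (10-30 min, 37° C) at 620-655 nm; EC50 from sigmoidal dose-response fit.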

human TLR 8 protein = molecular target: T2, human TLR 8 protein (Homo sapiens, UniProt Q9NR97); test: TLR8 Stimulation determined using HEK-Blue Detection; assay type: cell-based; settings: HEK-Blue hTLR8 cells, 16 hr, percentages of maximum activation with Resiquimod or Motolimod, Table 3
T2 construct: expressed in transfected cells; host or cells: HEK293 (HEK-Blue hTLR8)
T2 sequence (Q9NR97 27-1041): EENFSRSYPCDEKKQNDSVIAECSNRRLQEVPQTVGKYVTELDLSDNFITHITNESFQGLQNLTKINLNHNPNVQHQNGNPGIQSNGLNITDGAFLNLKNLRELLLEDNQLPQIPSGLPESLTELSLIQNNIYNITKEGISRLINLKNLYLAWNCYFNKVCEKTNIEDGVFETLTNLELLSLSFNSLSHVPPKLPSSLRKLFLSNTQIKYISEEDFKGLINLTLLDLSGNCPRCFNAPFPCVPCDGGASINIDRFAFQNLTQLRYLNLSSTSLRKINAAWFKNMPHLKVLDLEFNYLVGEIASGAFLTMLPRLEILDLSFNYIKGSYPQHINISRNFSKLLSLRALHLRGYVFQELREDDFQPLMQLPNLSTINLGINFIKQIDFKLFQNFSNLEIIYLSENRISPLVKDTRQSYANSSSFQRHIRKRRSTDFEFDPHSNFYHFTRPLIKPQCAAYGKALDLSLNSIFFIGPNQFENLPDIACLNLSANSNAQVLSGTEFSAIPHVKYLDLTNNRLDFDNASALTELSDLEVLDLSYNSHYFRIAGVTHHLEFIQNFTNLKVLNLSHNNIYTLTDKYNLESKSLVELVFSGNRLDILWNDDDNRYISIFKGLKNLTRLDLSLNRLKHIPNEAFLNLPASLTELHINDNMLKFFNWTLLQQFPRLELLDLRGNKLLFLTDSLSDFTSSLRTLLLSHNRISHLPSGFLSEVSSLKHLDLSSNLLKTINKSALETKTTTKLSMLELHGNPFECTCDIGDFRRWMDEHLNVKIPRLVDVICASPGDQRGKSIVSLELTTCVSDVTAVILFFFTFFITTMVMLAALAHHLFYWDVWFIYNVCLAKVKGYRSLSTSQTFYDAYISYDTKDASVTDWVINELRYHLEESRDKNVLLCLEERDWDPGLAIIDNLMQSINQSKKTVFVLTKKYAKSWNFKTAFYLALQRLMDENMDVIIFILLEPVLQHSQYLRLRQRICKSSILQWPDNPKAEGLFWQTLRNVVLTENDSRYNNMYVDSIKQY
From the text: TLR8 Stimulation determined using HEK-Blue Detection
This assay was designed for studying the stimulation of human TLR 8 protein in HEK-Blue hTLR8 tool cell line by monitoring the activation of NF-κB. HEK-Blue hTLR8 cells were obtained by co-transfection of the hTLR8 gene and an optimized secreted embryonic alkaline phosphatase (SEAP) reporter gene into HEK293 cells. The SEAP reporter gene was placed under the control of the IFN-β minimal promoter fused to five NF-κB and AP-1-binding sites. Stimulation with a TLR 8 ligand activates NF-κB and AP-1 which induce the expression of SEAP. Levels of SEAP can be easily determined with HEK-Blue Detection, a cell culture medium that allows for real-time detection of SEAP. HEK-Blue Detection contains all the nutrients necessary for cell growth and a specific SEAP color substrate. The hydrolysis of the substrate by SEAP produces a purple/blue color that can be measured with a spectrophotometer.
When growing to 50-80% confluency, HEK-Blue hTLR7/8 cells were plated into 96-well plate (costar 3599) at a density of 40000 cells/well. Then compounds were added with serial dilutions over 10 points with a 1 nM-10 uM final concentration range in 0.1% DMSO/HEK-Blue Detection. The plates were then incubated for 16 hr at 37° C. in 5% CO2. The optical density at 620-655 nm was read on BMG PHERAstar FSX instrument. The EC50 for each compound was determined by calculating the percentages of the maximum activation identified with Resiquimod or Motolimod.

Row | SMILES | EC50 (human TLR7) | EC50 (human TLR 8 protein)
1 | CCCCOc1nc(N)c2ncc(Cc3ccc(C4CCNCC4)nc3F)n2n1 [Compound B21, 2-butoxy-7-((2-fluoro-6-(piperidin-4-yl)pyridin-3-yl)methyl)imidazo[2,1-f][1,2,4]triazin-4-amine] | 0.115 µM | 0.25 µM
2 | CCCCOc1nc(N)c2ncc(Cc3ccc(N4CCNCC4)cn3)n2n1 [Compound B16, 2-butoxy-7-((5-(piperazin-1-yl)pyridin-2-yl)methyl)imidazo[2,1-f][1,2,4]triazin-4-amine] | 1.44 µM | –
3 | CCC(C)Oc1nc(N)c2ncc(Cc3cnc(N4CCN(C(=O)CN(C)C)CC4)c(C)c3)n2n1 (stereo not shown) [Compound B155, 1-(4-(5-((4-amino-2-(sec-butoxy)imidazo[2,1-f][1,2,4]triazin-7-yl)methyl)-3-methylpyridin-2-yl)piperazin-1-yl)-2-(dimethylamino)ethan-1-one] | 0.0083 µM | –
4 | CCCC(C)Oc1nc(N)c2ncc(Cc3cnc(N4CCC(CNC)CC4)c(C)c3)n2n1 (stereo not shown) [Compound B205, 7-((5-methyl-6-(4-((methylamino)methyl)piperidin-1-yl)pyridin-3-yl)methyl)-2-(pentan-2-yloxy)imidazo[2,1-f][1,2,4]triazin-4-amine] | 0.0065 µM | –
5 | CCCCOc1nc(N)c2ncc(Cc3cnc(N4CCN(C(=O)[C@@H](N)[C@@H](C)CC)CC4)c(C)c3)n2n1 [Compound B67, (2S,3S)-2-amino-1-(4-(5-((4-amino-2-butoxyimidazo[2,1-f][1,2,4]triazin-7-yl)methyl)-3-methylpyridin-2-yl)piperazin-1-yl)-3-methylpentan-1-one] | 0.336 µM | –
6 | CCC(CC)Oc1nc(N)c2ncc(Cc3cnc(N4CCN(C(=O)CNC)CC4)c(C)c3)n2n1 [Compound B201, 1-(4-(5-((4-amino-2-(pentan-3-yloxy)imidazo[2,1-f][1,2,4]triazin-7-yl)methyl)-3-methylpyridin-2-yl)piperazin-1-yl)-2-(methylamino)ethan-1-one] | 0.028 µM | –
7 | CCCCOc1nc(N)c2ncc(Cc3cnc(N4CCC(CN5CCOCC5)CC4)c(C)c3)n2n1 [Compound B109, 2-butoxy-7-((5-methyl-6-(4-(morpholinomethyl)piperidin-1-yl)pyridin-3-yl)methyl)imidazo[2,1-f][1,2,4]triazin-4-amine] | 0.161 µM | –
8 | CCCCOc1nc(N)c2ncc(Cc3ccc(C4CCNCC4)nc3)n2n1 [Compound B19, 2-butoxy-7-((6-(piperidin-4-yl)pyridin-3-yl)methyl)imidazo[2,1-f][1,2,4]triazin-4-amine] | 0.227 µM | –
9 | CCCC(CC)Nc1nc(N)c2ncc(Cc3cnc(N4CCNCC4)c(C)c3)n2n1 (stereo not shown) [Compound B223, N2-(hexan-3-yl)-7-((5-methyl-6-(piperazin-1-yl)pyridin-3-yl)methyl)imidazo[2,1-f][1,2,4]triazine-2,4-diamine] | 0.006 µM | –
10 | CCCCOc1nc(N)c2ncc(Cc3ccc(C4CCNCC4)nc3C)n2n1 [Compound B54, 2-butoxy-7-((2-methyl-6-(piperidin-4-yl)pyridin-3-yl)methyl)imidazo[2,1-f][1,2,4]triazin-4-amine] | 0.158 µM | –
11 | CCCC(C)Oc1nc(N)c2ncc(Cc3cnc(N4CCC(N(C)C)CC4)c(C)c3)n2n1 (stereo not shown) [Compound B133, 7-((6-(4-(dimethylamino)piperidin-1-yl)-5-methylpyridin-3-yl)methyl)-2-(pentan-2-yloxy)imidazo[2,1-f][1,2,4]triazin-4-amine] | 0.0056 µM | –
12 | CCCCOc1nc(N)c2ncc(Cc3cnc(N4CCC(CN(C)C)C4)c(C)c3)n2n1 (stereo not shown) [Compound B105, 2-butoxy-7-((6-(3-((dimethylamino)methyl)pyrrolidin-1-yl)-5-methylpyridin-3-yl)methyl)imidazo[2,1-f][1,2,4]triazin-4-amine] | 0.177 µM | –
13 | CCCNc1nc(N)c2ncc(Cc3cnc(N4CCNCC4)c(C)c3)n2n1 [Compound B139, 7-((5-methyl-6-(piperazin-1-yl)pyridin-3-yl)methyl)-N2-propylimidazo[2,1-f][1,2,4]triazine-2,4-diamine] | 0.088 µM | –
14 | CCCCOc1nc(N)c2ncc(Cc3cnc(N4CCCCC4)c(C)c3)n2n1 [Compound B34, 2-butoxy-7-((5-methyl-6-(piperidin-1-yl)pyridin-3-yl)methyl)imidazo[2,1-f][1,2,4]triazin-4-amine] | > 10 µM | –
15 | CCCCOc1nc(N)c2ncc(Cc3cnc(N4CCC5(CCNCC5)C4)c(C)c3)n2n1 [Compound B101, 2-butoxy-7-((5-methyl-6-(2,8-diazaspiro[4.5]decan-2-yl)pyridin-3-yl)methyl)imidazo[2,1-f][1,2,4]triazin-4-amine] | 0.425 µM | –
16 | CCCC(C)Nc1nc(N)c2ncc(Cc3cnc(N4CCC(N(C)C)CC4)c(C)c3)n2n1 (stereo not shown) [Compound B138, 7-((6-(4-(dimethylamino)piperidin-1-yl)-5-methylpyridin-3-yl)methyl)-N^2-(pentan-2-yl)imidazo[2,1-f][1,2,4]triazine-2,4-diamine] | 0.0055 µM | –
17 | CCCCOc1nc(N)c2ncc(Cc3cnc(N4CCN(CCN)CC4)c(C)c3)n2n1 [Compound B91, 7-((6-(4-(2-aminoethyl)piperazin-1-yl)-5-methylpyridin-3-yl)methyl)-2-butoxyimidazo[2,1-f][1,2,4]triazin-4-amine] | 0.15 µM | –
18 | CC[C@@H](C)Oc1nc(N)c2ncc(Cc3cnc(N4CCN(C(=O)CN(C)C)CC4)c(C)c3)n2n1 [Compound B153, (R)-1-(4-(5-((4-amino-2-(sec-butoxy)imidazo[2,1-f][1,2,4]triazin-7-yl)methyl)-3-methylpyridin-2-yl)piperazin-1-yl)-2-(dimethylamino)ethan-1-one] | 0.049 µM | –
